Assay results from US20260022142A1, “MACROCYCLIC IMMUNOMODULATORS” (Bristol-Myers Squibb Company, priority 2022, published 2026).
Bridge positions count the residues as written; N and C are the ends. Square brackets hold non-standard residues; d marks the D form. Peptide text beside a SMILES is read from it. * marks the point of attachment. ξ: configuration not given here. Phe(4-COOH) = N[C@@H](Cc1ccc(C(=O)O)cc1)C(=O)O; Bip = N[C@@H](Cc1ccc(-c2ccccc2)cc1)C(=O)O; Phe(3-Me) = Cc1cccc(C[C@H](N)C(=O)O)c1; Cha = N[C@@H](CC1CCCCC1)C(=O)O; Cit = NC(=O)NCCC[C@H](N)C(=O)O; Thr(3ξ) = CC(O)[C@H](N)C(=O)O; Carboxymethyl = O=C(O)C*; Orn = NCCC[C@H](N)C(=O)O; Aun = NCCCCCCCCCCC(=O)O; Dab = NCC[C@H](N)C(=O)O; AEEA = NCCOCCOCC(=O)O

Target: T1, PD-1/PD-L1 interaction (PE-labeled human PD-L1-Ig binding to Jurkat cell line over-expressing human PD-1) (Homo sapiens, UniProt Q15116)
T1 construct: expressed in transfected cells; host or cells: Jurkat
Assay: Jurkat-PD-1 Cell Binding High-Content Screening Assay (CBA)
Assay type: cell-based
Conditions: Jurkat cell line over-expressing human PD-1; PE-labeled PD-L1-Ig 20 nM final; read-out: Jurkat hPD1-PDL1 IC50
Summary of the method: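 Read-out is high-content imaging of cell-bound phycoerythrin-tagged PD-L1-Ig on fixed, Hoechst-counterstained Jurkat cells that over-express human PD-1. Compound exposure lasts 2 h at 37° C before the labeled ligand (20 nM final) is added for a further hour.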

T1 sequence (Q15116 25-288): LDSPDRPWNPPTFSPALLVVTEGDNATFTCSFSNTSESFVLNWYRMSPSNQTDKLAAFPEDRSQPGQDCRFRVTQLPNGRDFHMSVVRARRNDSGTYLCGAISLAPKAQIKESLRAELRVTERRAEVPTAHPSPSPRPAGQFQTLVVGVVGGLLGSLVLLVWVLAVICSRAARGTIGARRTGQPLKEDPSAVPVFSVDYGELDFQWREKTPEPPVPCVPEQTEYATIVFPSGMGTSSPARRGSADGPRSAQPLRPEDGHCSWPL

Compound	IC50
Cc1cccc(C[C@@H]2NC(=O)[C@H](CC(=O)O)NC(=O)[C@H](Cc3ccc(OCC(=O)O)cc3)NC(=O)[C@H](CC(N)=O)NC(=O)CSC[C@@H](C(=O)N[C@@H](CCN)C(=O)NCCCCCCCCCCC(=O)O)NC(=O)[C@H](C(C)O)NC(=O)[C@H](C(C)C)NC(=O)[C@H](CC3CCCCC3)NC(=O)[C@H](CCN)NC(=O)[C@@H](CC(C)C)NC(=O)[C@H](CCCN)NC(=O)[C@H](CCCNC(N)=O)NC(=O)[C@H](Cc3ccc(-c4ccccc4)cc3)NC(=O)[C@H](C(C)C)NC2=O)c1 (stereo partly drawn) [Compound 3455] ({CH2CO}-NY(Carboxymethyl)D[Phe(3-Me)]V[Bip][Cit][Orn][dL][Dab][Cha]V[Thr(3ξ)]C[Dab][Aun]-OH; thioether N-14)	14.6 nM
Cc1cccc(C[C@@H]2NC(=O)[C@H](CC(=O)O)NC(=O)[C@H](Cc3ccc(OCC(=O)O)cc3)NC(=O)[C@H](C(C)O)NC(=O)CSC[C@@H](C(=O)N[C@@H](CCN)C(=O)NCCCCCCCCCCC(=O)O)NC(=O)[C@H](C(C)O)NC(=O)[C@H](C(C)C)NC(=O)[C@H](CC3CCCCC3)NC(=O)[C@H](CCN)NC(=O)[C@@H](CC(C)C)NC(=O)[C@H](CCCN)NC(=O)[C@H](Cc3ccc(O)cc3)NC(=O)[C@H](Cc3ccc(-c4ccccc4)cc3)NC(=O)[C@H](Cc3ccc(O)cc3)NC2=O)c1 (stereo partly drawn) [Compound 3456] ({CH2CO}-[Thr(3ξ)]Y(Carboxymethyl)D[Phe(3-Me)]Y[Bip]Y[Orn][dL][Dab][Cha]V[Thr(3ξ)]C[Dab][Aun]-OH; thioether N-14)	26.4 nM
Cc1cccc(C[C@@H]2NC(=O)[C@H](CC(=O)O)NC(=O)[C@H](Cc3ccc(OCC(=O)O)cc3)NC(=O)[C@H](CCCNC(=N)N)NC(=O)CSC[C@@H](C(=O)N[C@@H](CCN)C(=O)NCCCCCCCCCCC(=O)O)NC(=O)[C@H](C(C)O)NC(=O)[C@H](C(C)C)NC(=O)[C@H](CC3CCCCC3)NC(=O)[C@H](CCN)NC(=O)[C@@H](CC(C)C)NC(=O)[C@H](CCCN)NC(=O)[C@H](Cc3ccc(O)cc3)NC(=O)[C@H](Cc3ccc(-c4ccccc4)cc3)NC(=O)[C@H](C(C)C)NC2=O)c1 (stereo partly drawn) [Compound 3457] ({CH2CO}-RY(Carboxymethyl)D[Phe(3-Me)]V[Bip]Y[Orn][dL][Dab][Cha]V[Thr(3ξ)]C[Dab][Aun]-OH; thioether N-14)	37.4 nM
Cc1cccc(C[C@@H]2NC(=O)[C@H](CC(=O)O)NC(=O)[C@H](Cc3ccc(OCC(=O)O)cc3)NC(=O)[C@H](C(C)O)NC(=O)CSC[C@@H](C(=O)N[C@@H](CCN)C(=O)NCCCCCCCCCCC(=O)O)NC(=O)[C@H](C(C)O)NC(=O)[C@H](C(C)C)NC(=O)[C@H](CC3CCCCC3)NC(=O)[C@H](CCN)NC(=O)[C@@H](CC(C)C)NC(=O)[C@H](CCCN)NC(=O)[C@H](CCCNC(N)=O)NC(=O)[C@H](Cc3ccc(-c4ccccc4)cc3)NC(=O)[C@H](C(C)C)NC2=O)c1 (stereo partly drawn) [Compound 3458] ({CH2CO}-[Thr(3ξ)]Y(Carboxymethyl)D[Phe(3-Me)]V[Bip][Cit][Orn][dL][Dab][Cha]V[Thr(3ξ)]C[Dab][Aun]-OH; thioether N-14)	18.4 nM
Cc1cccc(C[C@@H]2NC(=O)[C@H](CC(=O)O)NC(=O)[C@H](Cc3ccc(OCC(=O)O)cc3)NC(=O)[C@H](CCCNC(=N)N)NC(=O)CSC[C@@H](C(=O)NCCOCCOCC(=O)NCCCCCCCCCCC(=O)O)NC(=O)[C@H](C(C)O)NC(=O)[C@H](C(C)C)NC(=O)[C@H](CC3CCCCC3)NC(=O)[C@H](CCN)NC(=O)[C@@H](CC(C)C)NC(=O)[C@H](CCCN)NC(=O)[C@H](CCCNC(N)=O)NC(=O)[C@H](Cc3ccc(-c4ccccc4)cc3)NC(=O)[C@H](C(C)C)NC2=O)c1 (stereo partly drawn) [Compound 3459] ({CH2CO}-RY(Carboxymethyl)D[Phe(3-Me)]V[Bip][Cit][Orn][dL][Dab][Cha]V[Thr(3ξ)]C[AEEA][Aun]-OH; thioether N-14)	14.2 nM
Cc1cccc(C[C@@H]2NC(=O)[C@H](CC(=O)O)NC(=O)[C@H](Cc3ccc(OCC(=O)O)cc3)NC(=O)[C@H](C(C)O)NC(=O)CSC[C@@H](C(=O)NCCOCCOCC(=O)NCCCCCCCCCCC(=O)O)NC(=O)[C@H](C(C)O)NC(=O)[C@H](C(C)C)NC(=O)[C@H](CC3CCCCC3)NC(=O)[C@H](CCN)NC(=O)[C@@H](CC(C)C)NC(=O)[C@H](CCCN)NC(=O)[C@H](CCCNC(N)=O)NC(=O)[C@H](Cc3ccc(-c4ccccc4)cc3)NC(=O)[C@H](C(C)C)NC2=O)c1 (stereo partly drawn) [Compound 3460] ({CH2CO}-[Thr(3ξ)]Y(Carboxymethyl)D[Phe(3-Me)]V[Bip][Cit][Orn][dL][Dab][Cha]V[Thr(3ξ)]C[AEEA][Aun]-OH; thioether N-14)	17 nM
Cc1cccc(C[C@@H]2NC(=O)[C@H](CC(=O)O)NC(=O)[C@H](Cc3ccc(C(=O)O)cc3)NC(=O)[C@H](Cc3ccc(OCC(=O)O)cc3)NC(=O)CSC[C@@H](C(=O)N[C@@H](CCN)C(=O)NCCCCCCCCCCC(=O)O)NC(=O)[C@H](C(C)O)NC(=O)[C@H](C(C)C)NC(=O)[C@H](CC3CCCCC3)NC(=O)[C@H](CCN)NC(=O)[C@@H](CC(C)C)NC(=O)[C@H](CCCN)NC(=O)[C@H](CCCNC(N)=O)NC(=O)[C@H](Cc3ccc(-c4ccccc4)cc3)NC(=O)[C@H](CC(C)C)NC2=O)c1 (stereo partly drawn) [Compound 3463] ({CH2CO}-Y(Carboxymethyl)[Phe(4-COOH)]D[Phe(3-Me)]L[Bip][Cit][Orn][dL][Dab][Cha]V[Thr(3ξ)]C[Dab][Aun]-OH; thioether N-14)	31.3 nM
CC(=O)NCCCC[C@@H]1NC(=O)[C@H](Cc2ccc(-c3ccccc3)cc2)NC(=O)[C@H](Cc2ccccc2)NC(=O)[C@H](Cc2cccc(C)c2)NC(=O)[C@H](CC(=O)O)NC(=O)[C@H](Cc2ccc(OCC(=O)O)cc2)NC(=O)[C@H](C(C)O)NC(=O)CSC[C@@H](C(=O)N[C@@H](CCN)C(=O)NCCCCCCCCCCC(=O)O)NC(=O)[C@H](C(C)O)NC(=O)[C@H](C(C)C)NC(=O)[C@H](CC2CCCCC2)NC(=O)[C@H](CCN)NC(=O)[C@@H](CC(C)C)NC(=O)[C@H](CCCNC(N)=O)NC1=O (stereo partly drawn) [Compound 3466] ({CH2CO}-[Thr(3ξ)]Y(Carboxymethyl)D[Phe(3-Me)]F[Bip]K(Ac)[Cit][dL][Dab][Cha]V[Thr(3ξ)]C[Dab][Aun]-OH; thioether N-14)	19.5 nM
Cc1cccc(C[C@@H]2NC(=O)[C@H](CC(=O)O)NC(=O)[C@H](Cc3ccc(OCC(=O)O)cc3)NC(=O)[C@H](C(C)O)NC(=O)CSC[C@@H](C(=O)N[C@@H](CCCCN)C(=O)NCCCCCCCCCCC(=O)O)NC(=O)[C@H](C(C)O)NC(=O)[C@H](C(C)C)NC(=O)[C@H](CC3CCCCC3)NC(=O)[C@H](CCN)NC(=O)[C@@H](CC(C)C)NC(=O)[C@H](CCCN)NC(=O)[C@H](CCCNC(N)=O)NC(=O)[C@H](Cc3ccc(-c4ccccc4)cc3)NC(=O)[C@H](C(C)C)NC2=O)c1 (stereo partly drawn) [Compound 3467] ({CH2CO}-[Thr(3ξ)]Y(Carboxymethyl)D[Phe(3-Me)]V[Bip][Cit][Orn][dL][Dab][Cha]V[Thr(3ξ)]CK[Aun]-OH; thioether N-14)	33 nM
Cc1cccc(C[C@@H]2NC(=O)[C@H](CC(=O)O)NC(=O)[C@H](Cc3ccc(OCC(=O)O)cc3)NC(=O)[C@H](CCCNC(=N)N)NC(=O)CSC[C@@H](C(=O)N[C@@H](CCCCN)C(=O)NCCCCCCCCCCC(=O)O)NC(=O)[C@H](C(C)O)NC(=O)[C@H](C(C)C)NC(=O)[C@H](CC3CCCCC3)NC(=O)[C@H](CCN)NC(=O)[C@@H](CC(C)C)NC(=O)[C@H](CCCN)NC(=O)[C@H](CCCNC(N)=O)NC(=O)[C@H](Cc3ccc(-c4ccccc4)cc3)NC(=O)[C@H](C(C)C)NC2=O)c1 (stereo partly drawn) [Compound 3468] ({CH2CO}-RY(Carboxymethyl)D[Phe(3-Me)]V[Bip][Cit][Orn][dL][Dab][Cha]V[Thr(3ξ)]CK[Aun]-OH; thioether N-14)	26 nM
Cc1cccc(C[C@@H]2NC(=O)[C@H](CC(=O)O)NC(=O)[C@H](Cc3ccc(OCC(=O)O)cc3)NC(=O)[C@H](C(C)O)NC(=O)CSC[C@@H](C(=O)N[C@@H](CCCCN)C(=O)NCCCCCCCCCCC(=O)O)NC(=O)[C@H](CCCCN)NC(=O)[C@H](C(C)C)NC(=O)[C@H](CC3CCCCC3)NC(=O)[C@H](CCN)NC(=O)[C@@H](CC(C)C)NC(=O)[C@H](CCCN)NC(=O)[C@H](CCCNC(N)=O)NC(=O)[C@H](Cc3ccc(-c4ccccc4)cc3)NC(=O)[C@H](C(C)C)NC2=O)c1 (stereo partly drawn) [Compound 3469] ({CH2CO}-[Thr(3ξ)]Y(Carboxymethyl)D[Phe(3-Me)]V[Bip][Cit][Orn][dL][Dab][Cha]VKCK[Aun]-OH; thioether N-14)	16.9 nM
Cc1cccc(C[C@@H]2NC(=O)[C@H](CC(=O)O)NC(=O)[C@H](Cc3ccc(OCC(=O)O)cc3)NC(=O)[C@H](CCCNC(=N)N)NC(=O)CSC[C@@H](C(=O)N[C@@H](CCCCN)C(=O)NCCCCCCCCCCC(=O)O)NC(=O)[C@H](CCCCN)NC(=O)[C@H](C(C)C)NC(=O)[C@H](CC3CCCCC3)NC(=O)[C@H](CCN)NC(=O)[C@@H](CC(C)C)NC(=O)[C@H](CCCN)NC(=O)[C@H](CCCNC(N)=O)NC(=O)[C@H](Cc3ccc(-c4ccccc4)cc3)NC(=O)[C@H](C(C)C)NC2=O)c1 [Compound 3470] ({CH2CO}-RY(Carboxymethyl)D[Phe(3-Me)]V[Bip][Cit][Orn][dL][Dab][Cha]VKCK[Aun]-OH; thioether N-14)	24.8 nM
Cc1cccc(C[C@@H]2NC(=O)[C@H](CC(=O)O)NC(=O)[C@H](Cc3ccc(OCC(=O)O)cc3)NC(=O)[C@H](C(C)C)NC(=O)CSC[C@@H](C(=O)N[C@@H](CCCCN)C(=O)NCCCCCCCCCCC(=O)O)NC(=O)[C@H](C(C)O)NC(=O)[C@H](C(C)C)NC(=O)[C@H](CC3CCCCC3)NC(=O)[C@H](CCN)NC(=O)[C@@H](CC(C)C)NC(=O)[C@H](CCCN)NC(=O)[C@H](C(C)C)NC(=O)[C@H](Cc3ccc(-c4ccccc4)cc3)NC(=O)[C@H](C(C)C)NC2=O)c1 (stereo partly drawn) [Compound 3471] ({CH2CO}-VY(Carboxymethyl)D[Phe(3-Me)]V[Bip]V[Orn][dL][Dab][Cha]V[Thr(3ξ)]CK[Aun]-OH; thioether N-14)	21.2 nM
